Assay results: US20070231382A1, “Pharmaceutical composition” (priority 2001, published 2007)

What was measured:
[1] = Plasma half life after oral administration; type: in vivo; conditions: human
Source text: The immediate release pharmaceutical compositions of the invention, and which are useful in the kits and methods of the invention are “immediate release” tablet dosage forms. The tablets of the invention have neither the pharmacokinetic nor physical characteristics of extended release pharmaceutical dosage forms. Thus, a tablet of the invention will disintegrate or dissolve rapidly, preferably within one hour of administration, and administration of a tablet of the invention will result in a rapid rise in the blood plasma concentration of 5-methyl-2-(2′-chloro-6′-fluoroanilino)phenylacetic acid.

[2] = Clinical efficacy of once a day oral dose (anti-inflammatory, analgesic); type: in vivo, humans
Protocol: Such an agent is particularly useful in the treatment of chronic indications, such as rheumatoid arthritis and osteoarthritis as well as Alzheimer's Disease and prophylaxis of colon cancer, where the drug needs to be taken every day for the duration of a subject's life, because compliance is much easier with once a day dosing.
A single, 400 mg tablet that is easy to swallow facilitates compliance with a once-a-day, 400 mg dose treatment regimen.

[3] = Compressibility of the drug substance; type: physicochemical; conditions: drug substance and its pharmaceutically acceptable salts
Protocol: WO 99/11605, published Mar. 11, 1999 discloses 5-alkyl-2-arylaminophenylacetic acids and derivatives thereof as potent, selective inhibitors of cyclooxygenase-2. […] This active agent, when administered once a day, in a single, immediate release tablet formulation in an amount of about 400 mg, where the active agent comprises about 65% by weight of the tablet, provides effective anti-inflammatory treatment over a 24 hour period, without the use of extended release pharmaceutical formulation excipients and technology, and in a tablet form which is of a size that is easy to swallow.

half-life [1]: 3 to 6 h | Compressibility [3]: poor compressibility
Compound: Cc1ccc(Nc2c(F)cccc2Cl)c(CC(=O)O)c1 [5-methyl-2-(2′-chloro-6′-fluoroanilino)phenylacetic acid]
Analgesic efficacy ([2]; 400 mg): effective analgesic dose | Anti-inflammatory treatment, duration of action ([2]; humans, single oral dose of about 400 mg per day, immediate-release tablet): effective, safe anti-inflammatory treatment over a 24 hour period
